Data set [1] has as its system TGF-β1 Smad⅔ signaling pathway in NK cells. Kind of data set: Phospho-Smad⅔ assay in NK cells co-cultured with GSCs. The note with it: for p-Smad⅔ expression (MFI) in NK cells co-cultured with GSCs: healthy control NK cells + GSCs, inhibitor 10 μM. It is filed as cell-based, human. On the procedure: (§1) GSCs and purified NK cells were co-cultured for 48 hours in the presence of anti-TGFβ 123 (5 μg/ml) (R&D), HLA-ABC blocking antibody (clone W 6/32, Biolegend), CD44 blocking antibody (clone IM7, Biolegend), ILT-2 (CD85J) blocking antibody (clone HP-F1, ThermoFisher), CD155 blocking antibody (clone D171, GenTex), CD112 blocking antibody (clone TX31, Biolegend), 10 μM LY2109761, 10 μM galunisertib (LY2157299), 10 μM Cilengitide (Cayman Chemical) or 1 μM MMP-2/MMP-9 inhibitor I (Millipore). Cytotoxicity assays were then performed as described above.
NK cells were stained with Live/dead-aqua and CD56 ECD (Beckman Coulter) for 20 min in the dark at RT, washed with PBS fixed for 10 min in the dark. After one wash, the cells were permeabilized (Beckman Coulter kit) and stained with p-(5465/5467)-Smad2/p-(5423/5425)/Smad3-Alexa 647 mAb Phosflow antibody (BD Biosciences) for 30 minutes at room temperature. Cells incubated with 10 ng/ml recombinant TGF-β for 45 minutes in 37° C. were used as positive control.

A further data set deals with K562 targets. It is filed as cell-based, human. The note with it: 48 hours. On the procedure:
(§2) NK cells were co-cultured for 5 hours with K562 or GSCs target cells at an optimized effector:target ratio of 5:1 together with CD107a PE-CF594 (BD Biosciences), monensin (BD GolgiStopTM) and BFA (Brefeldin A, Sigma Aldrich). NK cells were incubated without targets as the negative control and stimulated with PMA (50 ng/mL) and ionomycin ([…], Sigma Aldrich) as positive control. Cells were collected, washed and stained with surface antibodies (mentioned above), fixed/permeabilized (BD Biosciences) and stained with IFN-7 v450 and TNF-α Alexa700 (BD Biosciences) antibodies.
(§3) NK cell cytotoxicity was assessed using chromium (siCr) release assay. Briefly, K562 or GSCs target cells were labeled with siCr (PerkinElmer Life Sciences, Boston, Mass.) at 50 μCi/5×10^5 cells for 2 hours. ^51Cr-labeled K562/GSC targets (5×105) were incubated for 4 h with serially diluted magnetically isolated NK cells in triplicate. Supernatants were then harvested and analysed for ^51Cr content.
For studies of NK cell suppression by GSCs and human astrocytes, magnetically selected healthy NK cells were cultured in Serum-free Stem Cell Growth Medium (SCGM; CellGro/CellGenix) supplemented with 5% glutamine, 5 μM HEPES (both from GIBCO/Invitrogen), and 10% FCS (Biosera) in 96-well flat-bottomed plates (Nunc) at 100,000/100D11. NK cells were co-cultured either alone (positive control) or with GSCs or astrocytes at a 1:1 ratio for 48 hours at 37° C. before performing functional assays to assess NK cells cytotoxicity.
as §1

For a further data set, the system named is GSC targets. Kind of data set: NK cell functional assay (51Cr release; CD107a, IFN-γ, TNF-α) against GSC targets after co-culture with GSCs. It counts as cell-based, human. The note with it: 48 hours co-culture with GSCs 1:1; inhibitor 10 μM. The protocol:
as §2, §3
For studies of NK cell suppression by GSCs and human astrocytes, magnetically selected healthy NK cells were cultured in Serum-free Stem Cell Growth Medium (SCGM; CellGro/CellGenix) supplemented with 5% glutamine, 5 μM HEPES (both from GIBCO/Invitrogen), and 10% FCS (Biosera) in 96-well flat-bottomed plates (Nunc) at 100,000/100D11. […]

Data set [2] relates to NKG2D, CD9, CD103 on TiNKs. Kind of data set: Flow cytometry of TiNKs extracted from mouse brain tumor. It counts as in vivo, mouse (NSG). From the text:
FIG. 20. […] Heat map representation of the surface markers NKG2D, CD9, CD103, PD-1 and CD69. Once the mice were sacrificed, the brain tissue was processed and TiNKs were extracted from the GBM tumor. The cells we then stained for the indicated surface markers and analyzed using flow cytometry. The expression is presented as percentage of the cells expressing each marker within the total NK cell population.
Brain tissue from the animals was collected and NK cells were isolated using a percoll (GE Healthcare) gradient fallowing protocol described by Pino et al^57. Briefly, brain tissue was dissociated using a 70 μm cell strainer (Life Science, Durham, N.C.). Cell suspension was re suspended in a 30% isotonic percoll solution and layer on top of a 70% isotonic percoll solution. Cells were centrifuged at 500 G for 30 minutes and 18 °C with no brake. 2-3 ml of the 70%-30% interface was collected in a clean tube and washed with PBS 1X. After this procedure, cells were ready for immunostaining with mouse CD45, human CD45, CD56, CD3, CD103, CD9, CD69, PD-1 and NKG2D all from Biolegend.

A further data set concerns soluble TGF-β1. Description: TGF-β ELISA of NK cell/GSC co-culture supernatant. The note with it: NK cells + GSCs, cilengitide 10 μM, 48 hours. It is filed as cell-based, human. On the procedure: NK cells and GSCs were either co-cultured or cultured alone for 48 hours in serum free SCGM growth medium. After 48 hours, supernatants were collected and secretion of TGF R and MMP2/3/9 was assessed in the supernatant by TGFβ1 ELISA kit (R&D systems) or MMP2/3/9 luminex kit (eBiosciences) as per the manufacturer's protocol.
For orientation: ELISA stands for enzyme-linked immunosorbent assay.

A further data set relates to patient-derived GSCs. Kind of data set: Xenogeneic (PDX) NSG mouse model of GBM. It counts as in vivo. On the procedure: To test this prediction, a PDX mouse model of patient-derived GSC was used, in which, ffLuc+ patient-derived GSCs (0.5×10^6) were stereotactically implanted on day 0 through a guide-screw into the right forebrain of NOD/SCID/IL2Rγc null mice (n=4-5 per group). After 7 days, the mice were treated intratumorally with 2.0×10^6 human NK cells every 7 days for 11 weeks (FIG. 5A) with either galunisertib to block the TGF-β signaling or cilengitide to block the integrin pathway. Galunisertib was administered five times a week by oral gavage and cilengitide three times a week by intraperitoneal injection. Animals implanted with tumor that were either untreated or received NK cells alone, galunisertib alone or cilengitide alone served as controls.
To assess the anti-tumor effect of NK cells against GSCs in vivo, a NOD/SCID IL-2R7null (NSG) human xenograft model (Jackson Laboratories, Bar Harbor, Me.) was used. Intracranial implantation of GSCs into male mice was performed as previously described^55. A total of 60 mice were used. 0.5×10^5 GSCs were implanted intracranially into the right frontal lobe of 5 week old NSG mice using a guide-screw system implanted within the skull. To increase uniformity of xenograft uptake and growth, cells were injected into 10 animals simultaneously using a multiport Microinfusion Syringe Pump (Harvard Apparatus, Holliston, Mass.). Animals were anesthetized with xylazine/ketamine during the procedure. For in vivo bioluminescent imaging, GSCs were engineered to express luciferase by lentivirus transduction. Kinetics of tumor growth was monitored using weekly bioluminescence imaging (BLI; Xenogen-IVIS 200 Imaging system; Caliper, Waltham, Mass.). Signal quantitation in photons/second (p/s) was performed by determining the photon flux rate within standardized regions of interest (ROI) using Living Image software (Caliper). […] expanded donor peripheral blood NK cells^56 were injected intracranially via the guide-screw at day 7 post tumor implantation, and then every 7 days for 11 weeks. Mice were treated with either cilengitide or galunisertib (both from MCE Med Chem Express, Monmouth Junction, NJ) in the presence or absence of intracranial NK cell injection. Cilengitide was administered intraperitoneally 3 times a week starting at day 1 (250 μg/100 μl PBS) while galunisertib was administered orally (75 mg/kg) by gavage 5 days a week starting at day 1 (see FIG. 5A). […]
Brain tissue specimens from untreated control mice, mice treated with either NK cells alone, cilengitide alone, galunisertib alone or with combination therapy of NK+ cilengitide or NK+ galunisertib were collected. […] Sections lacking tumor were also evaluated for evidence of meningoencephalitis using a Leica DM 2500 light microscope by a board-certified veterinary pathologist. […]

In data set [3] the test system is TiNKs / HC-NK cells rendered dysfunctional by GSCs. Kind of data set: Reversal of established NK cell dysfunction (TiNKs ex vivo; NK cell recovery assays). It is filed as cell-based, human. On the procedure:
FIGS. 11A-11G. […] (FIG. 11A) NK cells were incubated with or without galunisertinib (10 μM) or LY2109761 (10 μM) for 48 hours. Representative zebra plots show their CD107a, IFN-γ, and TNF-α response to K562 targets. NK cells were gated on CD3-CD56+ lymphocytes. Inset numbers are the percentages of CD107a-, IFN-γ- or TNF-α-positive NK cells within the gated NK cell population. (FIGS. 11B-11C) NK cells were cultured either alone or with GSCs in a 1:1 ratio with or without LY2109761 or galunisertib for 48 hrs. Representative zebra plots and summary box plots show their CD107, IFN-γ, and TNF-α expression response to K562 (FIG. 11B) or GSC (FIG. 11C) targets. Effector:target ratio is 5:1. NK cells were defined as CD3-CD56+ lymphocytes. Inset numbers are the percentages of CD107a-, IFN-γ- or TNF-α-positive NK cells (n=7, n=4 respectively). (FIG. 11D) TiNK cells were cultured for 24 hours in media with 5 ng/ml IL-15 with or without galunisertib. Representative zebra plots and bar graph summary show their CD107, IFN-γ, and TNF-α response to K562 targets. Effector:target ratio is 5:1. NK cells were gated on CD3-CD56+ lymphocytes. Inset numbers are the percentages of CD107a-, IFN-γ- or TNF-α-positive NK cells within the indicated regions. (n=3). (FIG. 11E) TiNK cells and paired PB-NK cells from GBM patients were cultured in the presence or absence of galunisertib for 12 hours. The bar graphs summarize the mean fluorescence intensity (MFI) for their p-Smad⅔ expression. Paired t test was performed to determine statistical significance (n=3). (FIG. 11F) Specific lysis (^51Cr release assay) of K562 targets by NK cells. After 48 hours of culture alone (blue lines) or with GSCs, healthy donor NK cells were either left with GSCs (red lines), or purified and re-suspended in media for another 48 hours (black lines). NK cells were then collected and used for ^51Cr release assay (n=4). (FIG. 11G) Specific lysis (^51Cr release assay) of K562 targets by NK cells. After 48 hours of culture alone (blue lines) or with GSCs, healthy donor NK cells were either left with GSCs ([…]) or purified and cultured in SCGM media plus 5 ng/ml IL-15 with (black lines) or without galunisertib (10 μM) (gray lines) for […]. At the end of the culture period, their cytotoxicity was tested against k562 targets by ^51Cr release assay (n=4).
NK cells were cultured either with GSCs in a 1:1 ratio or alone for 48 hours. After 48 hours of co-incubation, NK cells were then either purified again by bead selection and resuspended in SCGM media or remained in culture with GSCs for an additional 48 hours and then used for ^51Cr release assay. In a second assay, after reselection, NK cells were cultured for another 5 days in SCGM in the presence of 5 ng/ml IL-15 with or without 10 μM galunisertib before use for ^51Cr release assay.

“Also recorded” adds a separate entry of the source.

As for `c1ccc(-c2nn3c(c2-c2ccnc4cc(OCCN5CCOCC5)ccc24)CCC3)nc1` [LY2109761], the “p-Smad⅔ expression (MFI) in NK cells co-cultured with GSCs” value in data set [1] is “prevented GSCs from activating the TGF-β1 Smad⅔ signaling pathway in NK cells”. Besides, the “NK cell function (CD107a, IFN-γ, TNF-α response to K562), NK cells without GSCs” value in the data set with K562 targets (NK cells alone, inhibitor 10 μM) was “neither inhibitor affected NK cell function”. Further, the “GSC-induced NK cell dysfunction: natural cytotoxicity against GSC targets” value in the data set with GSC targets was “preserving the natural cytotoxicity of NK cells against K562 or GSC targets”.
In the case of `O=C(O)[C@@H](Cc1ccccc1)NS(=O)(=O)c1ccc(-c2ccccc2)cc1` [MMP 2/9 inhibitor], in data set [1] (NK cells with or without GSCs, inhibitor 1 μM), the “p-Smad⅔ levels in NK cells with MMP 2/9 inhibitor” value was “decreased p-Smad⅔ levels”. In the data set with K562 targets (MMP 2/9 inhibitor 1 μM), the “NK cell function in cultures lacking GSCs” value is “did not affect NK cell function in cultures lacking GSCs”.
Consider `CC(C)[C@H]1C(=O)N[C@@H](CCCN=C(N)N)C(=O)NCC(=O)N[C@@H](CC(=O)O)C(=O)N[C@H](Cc2ccccc2)C(=O)N1C` [cilengitide], for which the “p-Smad⅔ expression (MFI) in NK cells co-cultured with GSCs” value in data set [1] is given as “significantly decreased; also recorded: diminished Smad⅔ phosphorylation”. The “surface marker expression on TiNKs harvested after sacrifice” value in data set [2] is recorded as “protects NK cells from TGF-β induced inhibitory phenotype in vivo”. Moreover, the “soluble TGF-β1 levels in supernatant” value in the data set with soluble TGF-β1 was “significantly decreased levels of soluble TGF-β1; also recorded: decreased TGF-β production”. Moreover, the “tumor bioluminescence (BLI), first experiment” value in the data set with patient-derived GSCs (NK cells intratumorally every 7 days for 11 weeks, galunisertib oral 5 times a week, cilengitide i.p. three times a week) was “tumor bioluminescence rapidly increased”. Further, the “NK-mediated GBM killing / efficacy in PDX model of GBM (summary statements)” value in the data set on patient-derived GSCs (mouse, in vivo) is recorded as “enhances NK-mediated GBM killing in vivo”.
For the molecule IL-15: activating cytokine, the “reversal of GSC-induced dysfunction of HC-NK cells” value in data set [3] (NK cells purified after 48 hours with GSCs, then IL-15 5 ng/ml with or without galunisertib 10 μM) was “did not reverse the dysfunction of HC-NK cells induced by GSCs”. In addition, the “restoration of TiNK function (specific lysis of K562; CD107, IFN-γ, TNF-α)” value in data set [3] (TiNKs cultured 24 hours, galunisertib 10 μM or IL-15 5 ng/ml) was “failed to inactivate the TGF-β1 Smad⅔ signaling pathway and restore NK cell dysfunction”. Also, in data set [3] (TiNKs from GBM patients cultured ex vivo, galunisertib 12 hours or IL-15), the “TGF-β1 Smad⅔ signaling in TiNKs” value is reported as “failed to inactivate the TGF-β1 Smad⅔ signaling pathway”.

These data come from patent US20220378739A1, “NATURAL KILLER CELL IMMUNOTHERAPY FOR THE TREATMENT OF GLIOBLASTOMA AND OTHER CANCERS” (BOARD OF REGENTS, THE UNIVERSITY OF TEXAS SYSTEM, priority 2019, published 2022).
